88 compounds from PubChem BioAssay AID489040 (Sanford-Burnham Center for Chemical Genomics, 2010) can be followed below.

Active and inactive are the calls of the source.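 The calls were made as follows: active = mean half-maximal activating concentration from the dose-response fit at or below a set limit; inactive = the rest.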 Bounds are passed on as bounds.

The assay has as its target CHO-XBP1 luciferase reporter, IRE1-XBP1 UPR activation. Kind of assay: XBP1 luciferase reporter activation – CHO-XBP1 cells, luminescence, counter-screen for apoptotic UPR arm activators, dose response (AID 489040).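 Also: reporter read after six hours of compound exposure.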
On to `O=C(/C=C/Sc1ccc(C(F)(F)F)cn1)c1ccccc1`, for which the EC50 was > 80 µM (inactive).

Regarding `COc1ccc(/C=C\c2nc(=O)c3ccccc3o2)cc1`, the EC50 is > 80 µM (inactive).

In the case of `O=C1NC(=O)N(c2ccccc2)C(=O)/C1=C/C=C/c1ccco1`, the EC50 is > 80 µM (inactive).

Regarding `O=C(Oc1c(CN2CCOCC2)cc(Cl)c2cccnc12)c1ccccc1F`, the EC50 was > 80 µM (inactive).

`O=C1C(Cl)=C(NC(=O)c2ccccc2)C(=O)C(Cl)=C1NC(=O)c1ccccc1`: the EC50 is > 80 µM (inactive).

As to `C=CCSC(=C(C#N)C#N)c1cc2c([nH]1)CCCC2`, the EC50 is > 80 µM (inactive).

For `CCOC(=O)c1c(C)oc2c1c(C(c1cccnc1)N1CCOCC1)c(O)c1ccccc12` (stereo not drawn), the EC50 is > 80 µM (inactive).

For `O=C(CCC(=O)Nc1ccc(Cl)cc1Cl)N/N=C/c1ccc([N+](=O)[O-])o1`, the EC50 is > 80 µM (inactive).

Regarding `COc1cc(C(Nc2ccccn2)c2ccc3ccc(C)nc3c2O)cc(OC)c1O` (stereo not drawn), the EC50 was > 80 µM (inactive).

For `CCCCCCCCCn1c2c(c(=N)c3c1CCC3)CCC2`, the EC50 was > 80 µM (inactive).

Turning to `O=C(CSc1ccc2ccccc2c1)NCCc1ccc(O)c(O)c1`, the EC50 is > 80 µM (inactive).

On to `Cc1ccnc(Nc2nc(-c3ccc(O)c(O)c3)cs2)c1`, for which the EC50 was > 80 µM (inactive).

For `O=C(CCl)N1N=C(c2cccs2)CC1c1ccco1` (stereo not drawn), the EC50 is > 80 µM (inactive).

With `Cc1cc(C(=O)CCl)c(C)n1CCc1ccc(F)cc1`, the EC50 was > 80 µM (inactive).

As for `COC(=O)C(=Cc1ccc(OCc2ccc([N+](=O)[O-])cc2)c(OC)c1)C(=O)OC`, the EC50 was > 80 µM (inactive).

In the case of `Cn1c2ccccc2c2cc(/C=N/NC(=O)c3cc(O)ccc3O)ccc21`, the EC50 was > 80 µM (inactive).

With `S=C1SCN(CCN2CCOCC2)CN1Cc1ccccc1`, the EC50 was > 80 µM (inactive).

As for `O=C(CSc1cccc2cccnc12)N/N=C/c1cccnc1`, the EC50 was > 80 µM (inactive).

Turning to `COC(=O)Oc1ccc(/C=C/C(=O)OC(C)C)cc1OC(=O)OC`, the EC50 is > 80 µM (inactive).

As to `CC(C)N1C(=O)/C(=C/C=C/c2ccco2)C(=O)N(Cc2ccco2)C1=O`, the EC50 is > 80 µM (inactive).

With `O=[N+]([O-])c1ccc(Sc2cccc3cccnc23)c([N+](=O)[O-])c1`, the EC50 was > 80 µM (inactive).

For `CCOc1cc(/C=N/NC(N)=S)cc(Br)c1OCc1ccccc1C`, the EC50 was > 80 µM (inactive).

In the case of `CN1CCN(Cc2cc(COCc3ccccc3)c3cccnc3c2O)CC1`, the EC50 result was “inactive”.

Consider `O=C(Nc1ccc(Cc2ccncc2)cc1)c1ccc([N+](=O)[O-])o1`, for which the EC50 is > 80 µM (inactive).

`COc1ccc(N=c2oc3ccc(OC)cc3cc2-c2nc3ccccc3[nH]2)cc1`: the EC50 is 12.5 µM.

Regarding `Cc1ccc(N2C(=O)NC(=O)/C(=C/c3cnn(-c4ccc(C)cc4)c3)C2=O)cc1`, the EC50 was > 80 µM (inactive).

With `Cc1cc(C)c2c(c1)/C(=c1/sc3n(c1=O)CN(c1ccccc1)CN=3)C(=O)N2`, the EC50 result was “inactive”.

In the case of `COCc1ccc(O)c2ncccc12`, the EC50 entry was “inactive”.

For `COc1cc2nc(NC(=O)c3ccc(Cl)cc3)sc(=O)c2cc1OC`, the EC50 is > 80 µM (inactive).

Regarding `COc1cc(C(=O)Oc2c(CN3CCOCC3)cc(Cl)c3cccnc23)cc(OC)c1OC`, the EC50 is > 80 µM (inactive).

Consider `COC(=O)c1cc(=O)n(CCc2ccc(OC)c(OC)c2)c(=Nc2ccc(F)c(Cl)c2)s1`, for which the EC50 was > 80 µM (inactive).

For the compound `Oc1ccc(CN2CCc3ccccc3C2)c2cccnc12`, the EC50 was > 80 µM (inactive).

For `COc1ccc(NS(=O)(=O)c2ccc3ccccc3c2)c2ncccc12`, the EC50 is > 80 µM (inactive).

As to `C=CCN1C(=O)/C(=C/c2ccc3c(c2)CCCN3CCC)C(=O)NC1=S`, the EC50 is > 80 µM (inactive).

On to `Cc1ccc2nc(-c3ccc(O)c(O)c3)cn2c1`, for which the EC50 was > 80 µM (inactive).

On to `COc1ccc(N=Nc2ccc(O)c3ncccc23)cc1`, for which the EC50 result was “inactive”.

With `CCOc1cc(/C=N/Nc2cc(C)nc(-n3nc(C)cc3C)n2)ccc1O`, the EC50 was > 80 µM (inactive).

Take `CC(C)(C)C1=CC(=O)C(=O)C(C(C)(C)C)=C1`: the EC50 is > 80 µM (inactive).

As to `FC(F)(F)c1nnc(-c2ccccc2)nc1Sc1ccccc1`, the EC50 was > 80 µM (inactive).

Take `CC(C)(C)C(=O)N1CCN(c2ccc(NC(=O)c3ccc([N+](=O)[O-])o3)cc2)CC1`: the EC50 was > 80 µM (inactive).

`COc1ccc(N=c2oc3c(OC)cccc3cc2C(=O)NCc2ccco2)c(OC)c1`: the EC50 entry was “inactive”.

`Cc1cccc(OCCN2CSC(=S)N(C)C2)c1`: the EC50 is > 80 µM (inactive).

As for `COc1ccccc1N=Cc1c(O)c2ccccc2oc1=O`, the EC50 is 8.05 µM.

Consider `Cc1ccc2nc(-c3ccc(NC(=S)NC4CC(C)(C)NC(C)(C)C4)cc3)sc2c1`, for which the EC50 is > 80 µM (inactive).

Take `CC1CCC/C=C/C2CC(O)CC2C(O)/C=C/C(=O)O1` (stereo not drawn): the EC50 is > 80 µM (inactive).

In the case of `CCOC(=O)/C(=C\c1cccc(O)c1)c1nc2sc(C)c(C)c2c(=O)[nH]1`, the EC50 is > 80 µM (inactive).

For the compound `COc1ccc(O)c(/C=N/Nc2nc(Nc3ccccc3)nc(-n3nc(C)cc3C)n2)c1`, the EC50 is > 80 µM (inactive).

As to `Cc1coc2c1C(=O)C(=O)c1c-2ccc2c(C)cccc12`, the EC50 was > 80 µM (inactive).

As to `O=C1NC(=O)N(Cc2ccccc2Cl)C(=O)/C1=C/c1cccs1`, the EC50 was > 80 µM (inactive).

In the case of `CCOc1ccc(N2C(=O)CC(N(O)c3ccccc3)C2=O)cc1` (stereo not drawn), the EC50 was > 80 µM (inactive).

`COC(=O)c1ccc(C(=O)OC)c(NC(=O)CSc2cccc[n+]2[O-])c1`: the EC50 was 9.54 µM.

As to `COc1cc(NS(=O)(=O)c2ccc3ccccc3c2)c2ncccc2c1`, the EC50 was 15.5 µM.

Take `Cc1c(C#N)c(NC(=O)CCl)n(Cc2ccccc2)c1C`: the EC50 is > 80 µM (inactive).

For the compound `Cc1ccc(-c2nn3c(C)nnc3s2)cc1NC(=O)c1ccc(-c2ccc(Cl)cc2Cl)o1`, the EC50 is 15.9 µM.

Take `Cc1ccc(NC(=O)c2ccc(N/N=C/c3cccc(O)c3)c([N+](=O)[O-])c2)cc1`: the EC50 is > 80 µM (inactive).

In the case of `O=C(Nc1ccc(O)c2c(=O)cc(-c3cccc(Cl)c3)oc12)c1ccccc1Cl`, the EC50 is > 80 µM (inactive).

For the compound `C/C(=N/NC(=O)c1ccc(C(C)(C)C)cc1)c1ccccn1`, the EC50 is > 80 µM (inactive).

Take `COc1cccc(N=Nc2ccc3cccnc3c2O)c1`: the EC50 is > 80 µM (inactive).

Regarding `COc1ccc(N2CCN(Cc3cc(=O)oc4cc(-c5ccccc5)c(O)cc34)CC2)cc1`, the EC50 was > 80 µM (inactive).

Take `Brc1ccc(-c2ccc(/C=N/Nc3nncc(-c4ccccc4)n3)o2)cc1`: the EC50 result is “inactive”.

As to `Cc1cc(-n2c(C)cc(C(=O)CCl)c2C)no1`, the EC50 is > 80 µM (inactive).

Consider `CCc1cccc(CC)c1NC(=O)/C(C#N)=C/c1ccccc1C(F)(F)F`, for which the EC50 was > 80 µM (inactive).

For the compound `CCOc1ccc(N2C(=O)/C(=C\c3cccs3)C(=O)NC2=S)cc1`, the EC50 is > 80 µM (inactive).

Take `Oc1ccc(/C=N/Nc2cc(N3CCCC3)nc(N3CCCC3)n2)cc1O`: the EC50 result is “inactive”.

For the compound `N#Cc1cc([N+](=O)[O-])c(-n2nnc3ccccc32)c([N+](=O)[O-])c1`, the EC50 result was “inactive”.

Regarding `C/C(=N\NC(=O)c1cc(Br)ccc1O)c1ccccn1`, the EC50 was > 80 µM (inactive).

With `Nc1cccc(-c2nc3cc(S(=O)(=O)c4ccc5oc(-c6cccc(N)c6)nc5c4)ccc3o2)c1`, the EC50 is > 80 µM (inactive).

Turning to `COc1cc(SC#N)ccc1N=Cc1c(C)[nH]n(-c2ccc(C)c(C)c2)c1=O`, the EC50 is > 80 µM (inactive).

Consider `O=[N+]([O-])c1ccc(C=Nc2ccc(Cl)cc2Cl)s1`, for which the EC50 was > 80 µM (inactive).

On to `O=C(C#Cc1cccc([N+](=O)[O-])c1)c1ccccc1`, for which the EC50 is > 80 µM (inactive).

On to `CN1CCN(c2ccc(NC(=O)c3ccc([N+](=O)[O-])o3)cc2Cl)CC1`, for which the EC50 was > 80 µM (inactive).

As to `CCOc1ccc(NC(=S)NC(=O)/C=C/c2ccc(OC)c(OC)c2)c([N+](=O)[O-])c1`, the EC50 was > 80 µM (inactive).

For the compound `COC(=O)[C@@H]1[C@@H](C#N)C2(c3ccccc3-c3ccccc32)N(c2ccc(Cl)cc2)N1C#N`, the EC50 was > 80 µM (inactive).

Take `Cc1c(C#N)c(NC(=O)CCl)n(Cc2ccc(F)cc2)c1C`: the EC50 is > 80 µM (inactive).

Regarding `CC1=NN(c2cccc(C(=O)O)c2)C(=O)/C1=C\C=C/c1ccccc1`, the EC50 was > 80 µM (inactive).

As to `Cn1cc(/C=C2\SC(=O)NC2=S)c2ccccc21`, the EC50 entry is “inactive”.

As to `Cc1cc(C)cc(N2C(=O)NC(=O)/C(=C\c3cccn3-c3ccccc3)C2=O)c1`, the EC50 was > 80 µM (inactive).

Consider `N#CC12COC3(CCCCC3C1(C#N)C#N)OC2=N` (stereo not drawn), for which the EC50 is > 80 µM (inactive).

With `CCOC(=O)c1ccc(-c2ccc(/C=N/NC(=O)CN(c3cccc(C)c3)S(C)(=O)=O)o2)cc1`, the EC50 entry was “inactive”.

As for `C[C@@H]1C[C@@H]2O[C@H]2/C=C\C=C\C(=O)Cc2c(Cl)c(O)cc(O)c2C(=O)O1`, the EC50 is > 80 µM (inactive).

On to `O=C(N/N=C/c1ccccn1)c1cc(-c2ccc(Cl)cc2)nc2ccccc12`, for which the EC50 was > 80 µM (inactive).

For `CCOc1cc(C=C(C(=O)OC)C(=O)OC)ccc1OCc1ccc([N+](=O)[O-])cc1`, the EC50 was > 80 µM (inactive).

In the case of `CCCCOc1ccc(N2C(=O)CC(N(O)c3ccccc3)C2=O)cc1` (stereo not drawn), the EC50 was > 80 µM (inactive).

Consider `O=C1Nc2ccccc2/C1=C\C(=O)c1ccccc1`, for which the EC50 is > 80 µM (inactive).

On to `CC1=C(CC/C(C)=N/NC(N)=S)C(C)(C)CCC1`, for which the EC50 result is “inactive”.

Take `Cc1c(NC(=O)CSc2cccc3cccnc23)c(=O)n(-c2ccccc2)n1C`: the EC50 is > 80 µM (inactive).

Consider `CC1=NOC(=O)/C1=C\c1ccc(-c2cccc(Cl)c2)o1`, for which the EC50 is > 80 µM (inactive).

`COc1ccc(CCn2c(C)cc(C(=O)CCl)c2C)cc1OC`: the EC50 was > 80 µM (inactive).
